Assay [1] concerns the target T1, hM3 (human Muscarinic receptor subtype 3) (Homo sapiens, UniProt P20309).
T1 construct: expressed in transfected cells; host or cells: CHO cells (ATCC)
The assay can be described thus: Human M3 calcium mobilization FLIPR assay. Format: cell-based. To be noted: hM3 expressed in CHO cells, intracellular Ca2+ release (FLIPR). Here is the method: Human M1, rat M1, Human M3 and Human M5 Calcium Mobilization FLIPR™ Assay The compound activity in the present invention (EC50 or IC50) is measured using a 384 plate-based imaging assay that monitors drug induced intracellular Ca^2+ release in whole cells. Activation of hM1 (human Muscarinic receptor subtype 1, gene bank access NM_000738), rM1 (rat Muscarinic receptor subtype 1, gene bank access NM_080773), hM3 (human Muscarinic receptor subtype 3, gene bank access NM_000740NM_000740) and hM5 (human Muscarinic receptor subtype 5, gene bank access NM_0121258), receptors expressed in CHO cells (Chinese hamster ovary cells, ATCC) is quantified in a Molecular Devices FLIPR IITM instrument as an increase in fluorescent signal. Inhibition of hM3 and hM5 by compounds is determined by the decrease in fluorescent signal in response to 2 nM acetylcholine activation. […] Prior to experiment, the cell culture medium is removed from the plates by inversion. […] Plates are incubated at 37° C. for 60 minutes prior to start the experiment. The incubation is terminated by washing the cells four times in assay buffer, leaving a residual 25 μl buffer per well. Cell plates are then transferred to the FLIPR, ready for compound additions. The day of experiment, acetylcholine and compounds are diluted in assay buffer in three-fold concentration range (10 points serial dilution) for addition by FLIPR instrument. For all calcium assays, a baseline reading is taken for 10 seconds followed by the addition of 12.5 μl of compounds, resulting in a total well volume of 37.5 μl. Data is collected every second for 60 pictures and then every 6 seconds for 20 pictures prior to the addition of agonist. For hM3 and hM5, before agonist addition, a second baseline reading is taken for 10 seconds followed by the addition of 12.5 μl of agonist or buffer, producing a final volume of 50 μl. After agonist stimulation, the FLIPR continues to collect data every second for 60 pictures and then every 6 seconds for 20 pictures. The fluorescence emission is read using filter 1 (emission 510-570 nm) by the FLIPR on board CCD camera. Calcium mobilization output data are calculated as the maximal relative fluorescence unit (RFU) minus the minimal value for both compound and agonist reading frame (except for hM1 and rM1 using only the maximal RFU). Data are analyzed using sigmoidal fits of a non-linear curve-fitting program (XLfit version 4.2.2 Excel add-in version 4.2.2 build 18 math 1Q version 2.1.2 build 18). All pEC50 and pIC50 values are reported as arithmetic means±standard error of mean of ‘n’ independent experiments.
Background: Calcium flux is commonly read through the fluorescence of an indicator in the cells.

In the next assay the target is T2, cloned human M4 receptor (Homo sapiens, UniProt P08173).
T2 construct: purchased Perkin-Elmer RBHM4M; host or cells: Chinese hamster ovary cells (CHO), membranes
T2 sequence (P08173 1-479): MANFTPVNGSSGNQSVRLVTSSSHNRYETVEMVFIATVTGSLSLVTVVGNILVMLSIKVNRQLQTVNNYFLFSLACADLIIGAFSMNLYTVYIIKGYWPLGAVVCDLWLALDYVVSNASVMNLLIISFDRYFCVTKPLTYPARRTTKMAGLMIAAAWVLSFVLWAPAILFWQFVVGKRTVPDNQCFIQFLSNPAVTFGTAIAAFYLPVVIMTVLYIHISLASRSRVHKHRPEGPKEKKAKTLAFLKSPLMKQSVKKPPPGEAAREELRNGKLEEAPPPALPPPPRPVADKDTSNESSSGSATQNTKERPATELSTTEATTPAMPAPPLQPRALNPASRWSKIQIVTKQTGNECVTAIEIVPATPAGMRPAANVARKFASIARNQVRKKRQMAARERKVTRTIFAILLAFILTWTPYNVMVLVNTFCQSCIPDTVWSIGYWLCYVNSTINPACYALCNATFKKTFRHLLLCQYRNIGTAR
The assay can be described thus: hM4 receptor GTPγS binding. In kind it is biochemical. To be noted: CHO membranes expressing hM4, [35S]GTPγS binding. Here is the method: hM4 Receptor GTPγS Binding Membranes produced from Chinese hamster ovary cells (CHO) expressing the cloned human M4 receptor (human Muscarinic receptor subtype 4, gene bank access NM_000741), are obtained from Perkin-Elmer (RBHM4M). The membranes are thawed at 37° C., passed 3 times through a 23-gauge blunt-end needle, diluted in the GTPγS binding buffer (50 mM Hepes, 20 mM NaOH, 100 mM NaCl, 1 mM EDTA, 5 mM MgCl2, pH 7.4, 100 μM DTT). The EC50, IC50 and Emax of the compounds of the invention are evaluated from 10-point dose-response curves (three fold concentration range) done in 60 μl in 384-well non-specific binding surface plate (Corning). Ten microliters from the dose-response curves plate (5× concentration) are transferred to another 384 well plate containing 25 μl of the following: 10 μg of hM4 membranes, 500 μg of Flashblue beads (Perkin-Elmer) and GDP 40 μM. An additional 15 μl containing 3.3× (60,000 dpm) of GTPγ^35S (0.4 nM final) are added to the wells resulting in a total well volume of 50 μl. Basal and maximal stimulated [^35S]GTPγS binding are determined in absence and presence of 30 μM final of acetylcholine agonist. The membranes/beads mix are pre-incubated for 15 minutes at room temperature with 40 μM GDP prior to distribution in plates (20 μM final). The reversal of acetylcholine-induced stimulation (10 μM final) of [^35S]GTPγS binding is used to assay the antagonist properties (IC50) of the compounds. The plates are incubated for 60 minutes at room temperature then centrifuged at 400 rpm for 5 minutes. The radioactivity (cpm) is counted in a Trilux (Perkin-Elmer). Values of EC50, IC50 and Emax are obtained using sigmoidal fits of a non-linear curve-fitting program (XLfit version 4.2.2 Excel add-in version 4.2.2 build 18 math 1Q version 2.1.2 build 18) of percent stimulated [^35S]GTPγS binding vs. log(molar ligand). All pEC50 and pIC50 values are reported as arithmetic means±standard error of mean of ‘n’ independent experiments.
On the technique in general: GTPγS resists hydrolysis and so accumulates on activated G proteins.

Experimental findings from patent US20090275574A1, “NOVEL COMPOUNDS-300” (ASTRAZENECA AB, priority 2008, published 2009) are described below.

Each structure is given as a SMILES string.

T1 sequence (P20309 whole entry): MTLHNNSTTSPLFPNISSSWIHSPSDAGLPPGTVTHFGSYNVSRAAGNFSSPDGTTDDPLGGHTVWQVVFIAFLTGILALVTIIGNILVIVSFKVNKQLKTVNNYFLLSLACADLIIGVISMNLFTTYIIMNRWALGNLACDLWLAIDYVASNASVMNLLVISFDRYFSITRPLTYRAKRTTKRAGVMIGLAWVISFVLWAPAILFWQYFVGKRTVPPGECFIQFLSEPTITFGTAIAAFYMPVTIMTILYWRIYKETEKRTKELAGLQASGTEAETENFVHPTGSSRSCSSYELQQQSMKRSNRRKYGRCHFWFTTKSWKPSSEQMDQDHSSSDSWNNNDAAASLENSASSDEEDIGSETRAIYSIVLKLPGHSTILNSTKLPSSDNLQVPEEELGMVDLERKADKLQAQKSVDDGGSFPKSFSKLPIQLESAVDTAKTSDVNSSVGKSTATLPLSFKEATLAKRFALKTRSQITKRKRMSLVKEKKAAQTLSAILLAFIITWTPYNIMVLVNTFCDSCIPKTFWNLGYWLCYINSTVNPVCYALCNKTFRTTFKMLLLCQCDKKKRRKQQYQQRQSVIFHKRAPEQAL

`CCOCC1CCC(N2CCC(N3C(=O)NC[C@H]4CCCC[C@@H]43)CC2)CC1` (mixture of isomers) [Example 08, (4aR,8aS)-1-(1-(4-(ethoxymethyl)cyclohexyl)piperidin-4-yl)octahydroquinazolin-2(1H)-one]: the EC50 (as a rule, the concentration needed to bring the measured effect to its halfway point) in assay [1] amounted to 1.1 µM; at cloned human M4 receptor, 0.985 µM. On the same counts, the results for `CC(C)OCC1CCC(N2CCC(N3C(=O)CO[C@H]4CCCC[C@@H]43)CC2)CC1` (mixture of isomers) [Example 15, (4aS,8aS)-4-(1-(4-(isopropoxymethyl)cyclohexyl)piperidin-4-yl)hexahydro-2H-benzo[b][1,4]oxazin-3(4H)-one] are above 40 µM and above 33.5 µM.

As for `CCCOCC1CCC(N2CCC(N3C(=O)NC[C@H]4CCCC[C@@H]43)CC2)CC1` (single isomer, unassigned) [Example 01], the results for the EC50 (in assay [1]; at cloned human M4 receptor) were above 40 µM and above 51.9 µM, respectively.

On to `CCCOCC1CCC(N2CCC(N3C(=O)NC[C@H]4CCCC[C@@H]43)CC2)CC1` (single isomer, unassigned) [Example 02], for which the EC50 in assay [1] was 1.6 µM; at cloned human M4 receptor, 0.521 µM.

Take `CC(C)OCC1CCC(N2CCC(N3C(=O)NC[C@H]4CCCC[C@@H]43)CC2)CC1` (single isomer, unassigned) [Example 04]: the EC50 worked out at 5.1 µM in assay [1] and 0.683 µM at cloned human M4 receptor. `CCCOC1CCC(N2CCC(N3C(=O)NC[C@H]4CCCC[C@@H]43)CC2)CC1` (single isomer, unassigned) [Example 06] had an EC50 at cloned human M4 receptor above 90 µM.

Take `CCOCC1CCC(N2CCC(N3C(=O)CO[C@H]4CCCC[C@@H]43)CC2)CC1` (single isomer, unassigned) [Example 13]: the results for the EC50 (in assay [1]; on cloned human M4 receptor) were above 40 µM and above 23.4 µM, respectively. On the same counts, the results for `CCOCC1CCC(N2CCC(N3C(=O)CO[C@H]4CCCC[C@@H]43)CC2)CC1` (single isomer, unassigned) [Example 14] are above 40 µM and 4.84 µM.

The molecule `CCCOC1CCC(N2CCC(N3C(=O)CO[C@H]4CCCC[C@@H]43)CC2)CC1` (single isomer, unassigned) [Example 17] displayed an EC50 on cloned human M4 receptor above 90 µM. Turning to `CC(C)OCC1CCC(N2CCC(N3C(=O)CO[C@H]4CCCC[C@@H]43)CC2)CC1` (single isomer, unassigned) [Example 18], the EC50 in assay [1] was above 40 µM; at cloned human M4 receptor, above 24.9 µM. Consider `CC(C)OCC1CCC(N2CCC(N3C(=O)CO[C@H]4CCCC[C@@H]43)CC2)CC1` (single isomer, unassigned) [Example 19], for which the EC50 in assay [1] was above 40 µM; on cloned human M4 receptor, above 43.4 µM. Molecule `O=C1CO[C@H]2CCCC[C@@H]2N1C1CCN(C2CCC(COCC3CC3)CC2)CC1` (single isomer, unassigned) [Example 22] came in with an EC50 at cloned human M4 receptor above 90 µM. Still for that read-out and setting: for `O=C1CO[C@H]2CCCC[C@@H]2N1C1CCN(C2CCC(COCC3CC3)CC2)CC1` (single isomer, unassigned) [Example 23] the value was above 90 µM. For the molecule `O=C1CO[C@H]2CCCC[C@@H]2N1C1CCN(C2CCC(COCCF)CC2)CC1` (single isomer, unassigned) [Example 24], the EC50 in assay [1] was above 40 µM; on cloned human M4 receptor, above 90 µM. Take `O=C1CO[C@H]2CCCC[C@@H]2N1C1CCN(C2CCC(COCCF)CC2)CC1` (single isomer, unassigned) [Example 25]: the EC50 is above 40 µM in assay [1] and above 26.5 µM at cloned human M4 receptor. On the same counts, the results for `O=C1CO[C@H]2CCCC[C@@H]2N1C1CCN(C2CCC(COCC(F)F)CC2)CC1` (single isomer, unassigned) [Example 26] are above 40 µM and above 90 µM. On the same counts, the results for `O=C1CO[C@H]2CCCC[C@@H]2N1C1CCN(C2CCC(COCC(F)F)CC2)CC1` (single isomer, unassigned) [Example 27] are above 40 µM and above 90 µM.

For `CC(C)OCC1CCC(N2CCC(N3C(=O)CO[C@H]4CCC(F)(F)C[C@@H]43)CC2)CC1` (single isomer, unassigned) [Example 37], the EC50 in assay [1] is above 40 µM; on cloned human M4 receptor, above 90 µM. On the same counts, the results for `CC(C)OCC1CCC(N2CCC(N3C(=O)CO[C@H]4CCC(F)(F)C[C@@H]43)CC2)CC1` (single isomer, unassigned) [Example 38] are above 40 µM and above 90 µM.

For `CCOCC1CC(N2CCC(N3C(=O)CO[C@H]4CCCC[C@@H]43)CC2)C1` (single isomer, unassigned) [Example 39], the EC50 in assay [1] is above 40 µM; at cloned human M4 receptor, above 90 µM. On to `O=C1CO[C@H]2CCCC[C@@H]2N1C1CCN(C2CC(COCC3CCC3)C2)CC1` (single isomer, unassigned) [Example 40], for which the EC50 at cloned human M4 receptor was above 90 µM. Regarding `CCOCC1CCC(N2CCC(N3C(=O)CO[C@H]4CCCC[C@@H]43)CC2)C1` (single isomer, unassigned) [Example 44], the figures for the EC50 (in assay [1]; on cloned human M4 receptor) were above 10 µM and 5.36 µM, respectively. On the same counts, the results for `CCOCC1CCC(N2CCC(N3C(=O)CO[C@H]4CCCC[C@@H]43)CC2)C1` (single isomer, unassigned) [Example 45] are above 40 µM and above 14.7 µM. The like results for `O=C1COC2CCCC2N1C1CCN([C@H]2CC[C@@H](COCC3CC3)CC2)CC1` (single isomer, unassigned) [Example 48] were, in that order, above 40 µM and above 11.7 µM. As to `O=C1NC[C@H]2CCCC[C@@H]2N1C1CCN(C2CCC(COCC(F)F)CC2)CC1` (single isomer, unassigned) [Example 51], the EC50 in assay [1] was above 40 µM; at cloned human M4 receptor it was above 90 µM. In the case of `CCOC[C@H]1CC[C@@H](N2CCC(N3C(=O)CO[C@H]4CCCC[C@@H]43)CC2)C1` [Example 42, (4aS,8aS)-4-(1-((1R,3S)-3-(ethoxymethyl)cyclopentyl)piperidin-4-yl)hexahydro-2H-benzo[b][1,4]oxazin-3(4H)-one], the results for the half-maximal effective concentration (EC50) (in assay [1]; on cloned human M4 receptor) were above 2.1 µM and 4.24 µM, respectively.
